Test results published in US20220244254A1, “Screening Methods and Assays for Use with Transmembrane Proteins, in Particular with GPCRs” (CONFO THERAPEUTICS N.V., priority 2019, published 2022).

Molecular target: T1, M2 receptor (Homo sapiens, UniProt P08172, DEL233-374)
T1 construct: FLAG (N); expressed in transfected cells
T1 sequence (P08172 with tags, fused parts or gaps DEL233-374): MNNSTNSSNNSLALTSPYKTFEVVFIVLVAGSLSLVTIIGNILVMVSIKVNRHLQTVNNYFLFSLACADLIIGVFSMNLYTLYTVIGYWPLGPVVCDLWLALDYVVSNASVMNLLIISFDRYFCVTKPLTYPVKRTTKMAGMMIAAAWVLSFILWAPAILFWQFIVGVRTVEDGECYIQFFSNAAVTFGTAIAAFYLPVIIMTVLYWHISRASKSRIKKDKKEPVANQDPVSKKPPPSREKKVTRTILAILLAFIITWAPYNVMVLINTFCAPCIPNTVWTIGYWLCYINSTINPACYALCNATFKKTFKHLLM
Assay: Assay of the invention: M2-LgBiT fusion and Nb9-8-SmBiT fusion
Assay type: cell-based

## Cc1c(Cl)c(OCC(=O)N2CCN(C)CC2)nc2sc(C(=O)NC3CC3)c(N)c12 [LY2119620]
LY2119620 itself, data not shown
  agonistic effect on the M2 receptor: some agonistic effect
Iperoxo DRC with and without LY2119620
  effect on the dose-response curve of iperoxo: effect as a positive allosteric modulator
